Assays:
[1] = Molar enthalpy of transition or fusion
[2] = molar heat capacity at constant pressure; settings: 101.33 kPa
[3] = for molar entropy: 101.33 kPa; for vapor or sublimation pressure: Knudsen effusion

C1C2CC3CC1CC(C14CC5CC(CC(C5)C1)C4)(C2)C3 [1,1'-biadamantane]
Settings	Molar enthalpy of transition or fusion, Crystal 1, DSC [kcal/mol]	Molar enthalpy of transition or fusion, Crystal 2, DSC [kcal/mol]	Molar enthalpy of transition or fusion, Crystal 3, Adiabatic calorimetry [kcal/mol]	Triple point temperature, Crystal 1, DTA [K]	Triple point temperature, Crystal 2, DTA [K]	Triple point temperature, Crystal 3 [K]
[1]	16.7	0.311	0.276	–	–	–
[3]	–	–	–	561	509.6	336.3

Settings	molar entropy, [3] [J/K/mol]	molar heat capacity at constant pressure, [2] [J/K/mol]	vapor or sublimation pressure, [3] [kPa]
5 K, Crystal 3, Small (less than 1 g) adiabatic calorimetry	0.123	0.4412	–
10 K, Crystal 3, Small (less than 1 g) adiabatic calorimetry	1.008	3.035	–
20 K, Crystal 3, Small (less than 1 g) adiabatic calorimetry	6.713	16	–
30 K, Crystal 3, Small (less than 1 g) adiabatic calorimetry	16.03	30.58	–
40 K, Crystal 3, Small (less than 1 g) adiabatic calorimetry	26.5	42.31	–
50 K, Crystal 3, Small (less than 1 g) adiabatic calorimetry	37.01	52.05	–
60 K, Crystal 3, Small (less than 1 g) adiabatic calorimetry	47.28	60.95	–
70 K, Crystal 3, Small (less than 1 g) adiabatic calorimetry	57.32	69.55	–
80 K, Crystal 3, Small (less than 1 g) adiabatic calorimetry	67.2	78.54	–
90 K, Crystal 3, Small (less than 1 g) adiabatic calorimetry	76.98	87.69	–
100 K, Crystal 3, Small (less than 1 g) adiabatic calorimetry	86.7	97.04	–
110 K, Crystal 3, Small (less than 1 g) adiabatic calorimetry	96.4	106.6	–
120 K, Crystal 3, Small (less than 1 g) adiabatic calorimetry	106.1	116.4	–
130 K, Crystal 3, Small (less than 1 g) adiabatic calorimetry	115.8	126.3	–
140 K, Crystal 3, Small (less than 1 g) adiabatic calorimetry	125.5	136.4	–
150 K, Crystal 3, Small (less than 1 g) adiabatic calorimetry	135.2	146.7	–
160 K, Crystal 3, Small (less than 1 g) adiabatic calorimetry	145.1	157.3	–
170 K, Crystal 3, Small (less than 1 g) adiabatic calorimetry	155	168.2	–
180 K, Crystal 3, Small (less than 1 g) adiabatic calorimetry	164.9	179.3	–
190 K, Crystal 3, Small (less than 1 g) adiabatic calorimetry	174.9	190.7	–
200 K, Crystal 3, Small (less than 1 g) adiabatic calorimetry	184.9	202.7	–
210 K, Crystal 3, Small (less than 1 g) adiabatic calorimetry	195.1	214.7	–
220 K, Crystal 3, Small (less than 1 g) adiabatic calorimetry	205.4	227.1	–
230 K, Crystal 3, Small (less than 1 g) adiabatic calorimetry	215.8	240	–
240 K, Crystal 3, Small (less than 1 g) adiabatic calorimetry	226.3	253.4	–
250 K, Crystal 3, Small (less than 1 g) adiabatic calorimetry	237	267.7	–
260 K, Crystal 3, Small (less than 1 g) adiabatic calorimetry	247.6	281.1	–
270 K, Crystal 3, Small (less than 1 g) adiabatic calorimetry	258.5	295.3	–
273.15 K, Crystal 3, Small (less than 1 g) adiabatic calorimetry	262.1	299.8	–
280 K, Crystal 3, Small (less than 1 g) adiabatic calorimetry	269.5	309.6	–
290 K, Crystal 3, Small (less than 1 g) adiabatic calorimetry	280.6	324	–
298.15 K, Crystal 3, Small (less than 1 g) adiabatic calorimetry	289.9	335.3	–
300 K, Crystal 3, Small (less than 1 g) adiabatic calorimetry	291.9	338	–
310 K, Crystal 3, Small (less than 1 g) adiabatic calorimetry	303.2	352.8	–
320 K, Crystal 3, Small (less than 1 g) adiabatic calorimetry	314.6	366.5	–
330 K, Crystal 3, Small (less than 1 g) adiabatic calorimetry	326.1	378.2	–
336.3 K, Crystal 2, Small (less than 1 g) adiabatic calorimetry	336.8	385	–
336.3 K, Crystal 3, Small (less than 1 g) adiabatic calorimetry	333.4	385	–
340 K, Crystal 2, Small (less than 1 g) adiabatic calorimetry	340	389	–
350 K, Crystal 2, Small (less than 1 g) adiabatic calorimetry	352.4	400	–
360 K, Crystal 2, Small (less than 1 g) adiabatic calorimetry	362.8	412	–
370 K, Crystal 2, Small (less than 1 g) adiabatic calorimetry	374.3	424	–
380 K, Crystal 2, Large sample (1 g) DSC	385.8	437	–
390 K, Crystal 2, Large sample (1 g) DSC	397.3	450	–
392.77 K, Crystal 2	–	–	0.0005447
398 K, Crystal 2	–	–	0.0008576
400 K, Crystal 2, Large sample (1 g) DSC	408.8	463	–
402.91 K, Crystal 2	–	–	0.001308
407.9 K, Crystal 2	–	–	0.001881
410 K, Crystal 2, Large sample (1 g) DSC	420.4	477	–
412.88 K, Crystal 2	–	–	0.002772
417.8 K, Crystal 2, Large sample (1 g) DSC	429.5	487	–
420 K, Crystal 2, Large sample (1 g) DSC	432.1	491	–
422.86 K, Crystal 2	–	–	0.006026
427.75 K, Crystal 2	–	–	0.00828
430 K, Crystal 2, Large sample (1 g) DSC	444	505	–
432.81 K, Crystal 2	–	–	0.01195
437.82 K, Crystal 2	–	–	0.01674
440 K, Crystal 2, Large sample (1 g) DSC	456	520	–
442.66 K, Crystal 2	–	–	0.02466
450 K, Crystal 2, Large sample (1 g) DSC	467	535	–
460 K, Crystal 2, Large sample (1 g) DSC	479	551	–
470 K, Crystal 2, Large sample (1 g) DSC	491	567	–
480 K, Crystal 2, Large sample (1 g) DSC	503	582	–
490 K, Crystal 2, Large sample (1 g) DSC	516	598	–
500 K, Crystal 2, Large sample (1 g) DSC	528	614	–
509.6 K, Crystal 1, Large sample (1 g) DSC	542	629	–
509.6 K, Crystal 2, Large sample (1 g) DSC	540	629	–
510 K, Crystal 1, Large sample (1 g) DSC	543	630	–
520 K, Crystal 1, Large sample (1 g) DSC	555	646	–
530 K, Crystal 1, Large sample (1 g) DSC	568	662	–
535 K, Crystal 1, Large sample (1 g) DSC	574	669	–
540 K, Crystal 1, Large sample (1 g) DSC	580	677	–
545 K, Crystal 1, Large sample (1 g) DSC	586	685	–
550 K, Crystal 1, Large sample (1 g) DSC	593	693	–
555 K, Crystal 1, Large sample (1 g) DSC	599	701	–
560 K, Crystal 1, Large sample (1 g) DSC	605	709	–

Reference: the NIST ThermoML archive (doi:10.1016/j.tca.2007.03.018)
